Here are results for one compound from PMC4690157, “Sulfur Isotope Effects of Dissimilatory Sulfite Reductase” (Frontiers in Microbiology, 2015).

One assay addresses T1, D. vulgaris DsrAB (Nitratidesulfovibrio vulgaris, UniProt P45574+P45575).
T1 construct: gene dsvA; native, purified from D. vulgaris cells (Q-Sepharose); heterodimeric DsrAB with siroheme (desulfoviridin)
Put plainly: sulfite loss over […] h by HPLC of monobromobimane derivatives; Michaelis-Menten fit. The following applies: H2 / [NiFe] hydrogenase / methyl viologen as electron donor system; 50 mM phosphate pH 7.1; anoxic; 20 or 31 °C (fractionation conditions). It is filed as biochemical.

A further assay deals with T2, A. fulgidus DsrAB (Archaeoglobus fulgidus, UniProt Q59109+Q59110).
T2 construct: gene dsrA; native, purified from A. fulgidus cells; heterodimeric DsrAB with siroheme; free of DsrC
Put plainly: closed-system in vitro sulfite reduction; sulfite loss and product accumulation (fuchsin assay, cyanolysis). It is filed as biochemical. The following applies: 15 mM initial sulfite; 65 °C; pH 7.1; H2 / [NiFe] hydrogenase / methyl viologen as electron donor system.

T2 sequence (Q59109 2-418): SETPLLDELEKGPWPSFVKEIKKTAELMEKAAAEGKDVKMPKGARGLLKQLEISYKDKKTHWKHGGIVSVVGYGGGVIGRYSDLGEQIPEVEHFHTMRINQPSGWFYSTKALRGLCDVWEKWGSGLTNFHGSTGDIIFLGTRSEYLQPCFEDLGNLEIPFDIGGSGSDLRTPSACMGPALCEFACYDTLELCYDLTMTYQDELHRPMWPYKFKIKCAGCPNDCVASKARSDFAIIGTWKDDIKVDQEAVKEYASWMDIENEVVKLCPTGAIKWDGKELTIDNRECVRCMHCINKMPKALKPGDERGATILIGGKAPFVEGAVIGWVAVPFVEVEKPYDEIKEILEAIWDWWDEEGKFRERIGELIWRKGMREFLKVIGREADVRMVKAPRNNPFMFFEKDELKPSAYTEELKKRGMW
T2 sequence (Q59110 whole entry): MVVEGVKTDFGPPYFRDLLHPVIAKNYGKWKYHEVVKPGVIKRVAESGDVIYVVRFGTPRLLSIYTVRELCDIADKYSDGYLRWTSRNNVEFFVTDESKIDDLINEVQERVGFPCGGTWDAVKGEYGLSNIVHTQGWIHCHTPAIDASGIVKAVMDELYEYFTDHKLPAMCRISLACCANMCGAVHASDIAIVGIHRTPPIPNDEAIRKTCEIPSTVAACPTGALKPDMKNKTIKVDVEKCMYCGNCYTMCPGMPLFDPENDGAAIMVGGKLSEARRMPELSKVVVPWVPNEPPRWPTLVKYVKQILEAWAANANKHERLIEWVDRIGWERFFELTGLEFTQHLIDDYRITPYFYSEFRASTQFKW
T1 sequence (P45574 2-437): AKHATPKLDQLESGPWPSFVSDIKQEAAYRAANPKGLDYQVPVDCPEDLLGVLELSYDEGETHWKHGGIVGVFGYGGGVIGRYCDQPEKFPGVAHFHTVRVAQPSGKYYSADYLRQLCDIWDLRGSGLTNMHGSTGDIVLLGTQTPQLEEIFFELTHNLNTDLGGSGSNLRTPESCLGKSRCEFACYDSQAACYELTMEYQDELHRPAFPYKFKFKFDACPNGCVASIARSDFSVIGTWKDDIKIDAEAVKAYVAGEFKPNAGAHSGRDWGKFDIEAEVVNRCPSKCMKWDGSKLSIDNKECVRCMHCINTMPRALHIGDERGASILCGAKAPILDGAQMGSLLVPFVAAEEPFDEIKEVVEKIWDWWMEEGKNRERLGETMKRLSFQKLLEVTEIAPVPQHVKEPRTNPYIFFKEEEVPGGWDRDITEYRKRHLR
T1 sequence (P45575 2-381): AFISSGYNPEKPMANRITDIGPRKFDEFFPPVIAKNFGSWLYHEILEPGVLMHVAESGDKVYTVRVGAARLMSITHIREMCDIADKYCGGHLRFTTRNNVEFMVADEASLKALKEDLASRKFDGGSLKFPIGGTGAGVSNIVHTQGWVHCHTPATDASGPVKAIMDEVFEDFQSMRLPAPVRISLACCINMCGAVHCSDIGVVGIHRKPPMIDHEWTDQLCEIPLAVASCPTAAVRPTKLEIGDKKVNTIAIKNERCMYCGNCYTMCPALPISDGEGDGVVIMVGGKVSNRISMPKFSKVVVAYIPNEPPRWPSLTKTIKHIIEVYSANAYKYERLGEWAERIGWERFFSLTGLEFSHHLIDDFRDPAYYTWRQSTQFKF

As to `O=S(O)O` [sulfite], the Km result on D. vulgaris DsrAB was “solved for experimental Km and Vmax under our conditions”. Further, at A. fulgidus DsrAB, the “closed-system in vitro sulfite reduction; sulfite loss and product accumulation” value is “showed consistent loss of sulfite and accumulation of products between replicates”.
